# In the Kinase Knowledgebase extract (Sharma et al. 2016):
# Values joined by “and” are separate entries in the source; they are usually repeats but may differ in a detail not shown here. Equal values may be shown once.
# Molecular target: EGFR (UniProt P00533)
# Assay: Inhibition of EGFR Kinase Activity
# EGFR, sequence (P00533 whole entry, looked up): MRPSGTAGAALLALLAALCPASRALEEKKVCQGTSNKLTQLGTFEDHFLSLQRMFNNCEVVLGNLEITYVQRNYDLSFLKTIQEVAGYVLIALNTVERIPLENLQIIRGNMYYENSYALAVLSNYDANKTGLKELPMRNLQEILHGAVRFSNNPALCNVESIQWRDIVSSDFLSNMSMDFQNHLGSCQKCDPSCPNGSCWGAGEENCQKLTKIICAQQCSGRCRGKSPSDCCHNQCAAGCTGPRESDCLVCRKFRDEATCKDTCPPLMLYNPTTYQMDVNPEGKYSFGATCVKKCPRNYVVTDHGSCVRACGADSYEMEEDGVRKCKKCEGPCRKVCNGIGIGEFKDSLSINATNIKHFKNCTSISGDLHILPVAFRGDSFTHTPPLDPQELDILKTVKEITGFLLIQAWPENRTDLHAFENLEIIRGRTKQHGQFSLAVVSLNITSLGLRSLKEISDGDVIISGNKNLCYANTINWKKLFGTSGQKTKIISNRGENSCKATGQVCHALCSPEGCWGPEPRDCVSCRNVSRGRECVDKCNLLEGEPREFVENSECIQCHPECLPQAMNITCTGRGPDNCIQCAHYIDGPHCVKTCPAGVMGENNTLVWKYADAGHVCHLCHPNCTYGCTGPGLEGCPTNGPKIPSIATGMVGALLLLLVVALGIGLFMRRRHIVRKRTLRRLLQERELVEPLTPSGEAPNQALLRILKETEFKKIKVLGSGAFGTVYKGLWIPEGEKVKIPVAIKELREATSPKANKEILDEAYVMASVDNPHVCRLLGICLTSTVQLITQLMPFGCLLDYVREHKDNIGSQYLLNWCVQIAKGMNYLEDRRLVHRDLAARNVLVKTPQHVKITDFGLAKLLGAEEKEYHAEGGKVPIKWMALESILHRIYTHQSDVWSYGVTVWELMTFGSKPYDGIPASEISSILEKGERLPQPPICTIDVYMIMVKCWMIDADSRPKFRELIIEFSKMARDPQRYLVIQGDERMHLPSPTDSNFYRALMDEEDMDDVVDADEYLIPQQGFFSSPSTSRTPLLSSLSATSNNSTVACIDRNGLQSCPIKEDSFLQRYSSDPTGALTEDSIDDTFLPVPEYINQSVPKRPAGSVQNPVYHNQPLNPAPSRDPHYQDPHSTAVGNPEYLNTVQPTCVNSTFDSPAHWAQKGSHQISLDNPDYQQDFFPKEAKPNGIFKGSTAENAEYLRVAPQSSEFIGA
row,SMILES,IC50
1,O=[N+]([O-])c1ccc2c(Nc3cccc(Cl)c3)ncnc2c1,812 nM
2,CNc1cc2ncnc(Nc3cccc(Br)c3)c2cc1[N+](=O)[O-],69 nM
3,O=[N+]([O-])c1cc2c(Nc3cccc(Br)c3)ncnc2cc1Cl,25 nM
4,O=[N+]([O-])c1ccc2ncnc(Nc3cccc(Br)c3)c2c1,912 nM
5,O=[N+]([O-])c1ccc2c(Nc3cccc(Br)c3)ncnc2c1,1000 nM
6,Nc1ccc2c(Nc3ccccc3)ncnc2c1,100 nM
7,Nc1cc2ncnc(Nc3ccccc3N)c2cn1,5370 nM
8,CN(CC(=O)O)N1=CC=C2N=CN=C(Nc3cccc(Br)c3)C2=C1,16 nM
9,Cc1cccc(Nc2ncnc3cnc(N)nc23)c1,17 nM
10,Cc1cccc(Nc2ncnc3ccccc23)c1,912 nM
11,CN(C)c1ccc2c(Nc3cccc(Br)c3)ncnc2n1,330 nM
12,Cc1cccc(Nc2ncnc3cnc(Cl)nc23)c1,380 nM
13,CN(C)c1ccc2c(Nc3cccc(Br)c3)ncnc2c1,11 nM
14,CN(C)c1cc2ncnc(Nc3cccc(Br)c3)c2cc1N,160 nM
15,Nc1ccc2ncnc(Nc3cccc(C(F)(F)F)c3)c2c1,575 nM
16,CNc1ncc2ncnc(Nc3ccccc3)c2n1,13 nM
17,CN(C)c1ccc2ncnc(Nc3cccc(Br)c3)c2c1,85 nM
18,OCN(CO)N1=CC=C2N=CN=C(Nc3cccc(Br)c3)C2=C1,14 nM
19,CN(C)c1ccc(Nc2ncnc3cc(N)ncc23)cc1,4890 nM
20,Clc1cccc(Nc2ncnc3ccccc23)c1,23.4 nM
21,CN(C)CCNN1=CC=C2N=CN=C(Nc3cccc(Br)c3)C2=C1,45 nM
22,COc1ccc2ncnc(Nc3ccccc3)c2c1,56 nM and 120 nM
23,COc1ccc2c(Nc3cccc(Br)c3)ncnc2n1,260 nM
24,Nc1cc2ncnc(Nc3ccccc3Br)c2cn1,245 nM
25,Fc1cc2ncnc(Nc3cccc(Br)c3)c2cn1,13 nM

row,SMILES,IC50
1,CN(C)CCN(C)N1=CC=C2N=CN=C(Nc3cccc(Br)c3)C2=C1,40 nM
2,Nc1ccc2ncnc(Nc3ccccc3)c2c1,776 nM
3,O=[N+]([O-])c1ccc2c(Nc3cccc(I)c3)ncnc2c1,549 nM
4,Clc1cc2c(Nc3cccc(Br)c3)ncnc2cn1,40 nM
5,COc1ccc(Nc2ncnc3cc(N)ncc23)cc1,670 nM
6,CC(=O)Nc1cc2ncnc(Nc3cccc(Br)c3)c2cn1,29 nM
7,COc1ccccc1Nc1ncnc2cc(N)ncc12,3710 nM
8,FC(F)(F)c1cccc(Nc2ncnc3ccccc23)c1,588 nM
9,CC(=O)Nc1ccc2c(Nc3cccc(Br)c3)ncnc2c1,40 nM
10,COc1cc2ncnc(Nc3cccc(Br)c3)c2cn1,39 nM
11,Nc1cc2ncnc(Nc3cccc(O)c3)c2cn1,70 nM
12,COc1ccc2ncnc(Nc3cccc(Br)c3)c2c1,354 nM
13,Clc1ncc2ncnc(Nc3cccc(Br)c3)c2n1,83 nM
14,COc1cc2ncnc(Nc3ccccc3)c2cc1OC,29 nM
15,Brc1cccc(Nc2ncnc3ccccc23)c1,27.5 nM
16,COc1cc2ncnc(Nc3cccc(Br)c3)c2cc1[N+](=O)[O-],15 nM
17,Ic1cccc(Nc2ncnc3ccccc23)c1,81 nM
18,Fc1cccc(Nc2ncnc3ccccc23)c1,56 nM
19,Nc1cc2ncnc(Nc3ccccc3)c2cn1,251 nM
20,OCCN(CCO)N1=CC=C2N=CN=C(Nc3cccc(Br)c3)C2=C1,12 nM
21,CN(C)c1cccc(Nc2ncnc3cc(N)ncc23)c1,1810 nM
22,Nc1cc2ncnc(Nc3cccc(F)c3)c2cn1,850 nM
23,Fc1cc2c(Nc3cccc(Br)c3)ncnc2cn1,125 nM
24,Nc1cc2ncnc(Nc3ccc(C(F)(F)F)cc3)c2cn1,4780 nM

# Further molecules by falling IC50, results first:
row,IC50,SMILES
1,10 nM,COc1ccc2c(Nc3cccc(Br)c3)ncnc2c1
2,10 nM,Nc1cc2ncnc(Nc3cccc(Br)c3)c2cn1
3,9.7 nM,CN(C)c1ccc2ncnc(Nc3cccc(Br)c3)c2n1
4,8.9 nM,CN(C)CCCNN1=CC=C2N=CN=C(Nc3cccc(Br)c3)C2=C1
5,8.5 nM,CN(C)CCCCCNN1=CC=C2N=CN=C(Nc3cccc(Br)c3)C2=C1
6,7.7 nM,Nc1ccc2ncnc(Nc3cccc(Br)c3)c2n1
7,7.4 nM,CN(C)CCCCNN1=CC=C2N=CN=C(Nc3cccc(Br)c3)C2=C1
8,7.2 nM,NNN1=CC=C2N=CN=C(Nc3cccc(Br)c3)C2=C1
9,6.6 nM,Nc1cc2c(Nc3cccc(Br)c3)ncnc2cc1Cl
10,5.6 nM,CN1CCN(CCCNN2=CC=C3N=CN=C(Nc4cccc(C)c4)C3=C2)CC1
11,5.4 nM,CN(C)CCCCNN1=CC=C2N=CN=C(Nc3cccc(C)c3)C2=C1
12,5.4 nM,Brc1cccc(NC2=NC=NC3=CC=N(NCCCCN4CCOCC4)C=C23)c1
13,5 nM,CN1CCN(CCCNN2=CC=C3N=CN=C(Nc4cccc(Br)c4)C3=C2)CC1
14,4.7 nM,Oc1ccc2c(Nc3cccc(Br)c3)ncnc2c1
15,4 nM,Cc1cccc(Nc2ncnc3cnc(N(C)C)nc23)c1
16,4 nM,CNc1ccc2ncnc(Nc3cccc(Br)c3)c2c1
17,3.8 nM,COc1ncc2ncnc(Nc3cccc(Br)c3)c2n1
18,3.8 nM,COc1cc2ncnc(Nc3cccc(Br)c3)c2cc1N
19,3.5 nM,Cc1cccc(NC2=NC=NC3=CC=N(NCCCn4ccnc4)C=C23)c1
20,3.2 nM,CN(CC(O)CO)N1=CC=C2N=CN=C(Nc3cccc(Br)c3)C2=C1
21,3.2 nM,Brc1cccc(NC2=NC=NC3=CC=N(NCCN4CCOCC4)C=C23)c1
22,3.1 nM,CNc1ccc2ncnc(Nc3cccc(Br)c3)c2n1
23,3 nM,Cc1cccc(Nc2ncnc3cnc(NCCc4c[nH]cn4)nc23)c1
24,2.6 nM,CN(CCO)N1=CC=C2N=CN=C(Nc3cccc(Br)c3)C2=C1
25,2.6 nM,COc1cc2c(Nc3cccc(Br)c3)ncnc2cn1

row,IC50,SMILES
1,2.3 nM,Brc1cccc(Nc2ncnc3cnc(NCCn4ccnc4)nc23)c1
2,2.3 nM,Cc1cccc(Nc2ncnc3cnc(NCCN4CCOCC4)nc23)c1
3,1.9 nM,Brc1cccc(NC2=NC=NC3=CC=N(NCCCN4CCOCC4)C=C23)c1
4,1.5 nM,Nc1ncc2ncnc(Nc3cccc(Br)c3)c2n1
5,1.5 nM,OC(=O)CNN1=CC=C2N=CN=C(Nc3cccc(Br)c3)C2=C1
6,1.4 nM,OS(=O)(=O)CCNN1=CC=C2N=CN=C(Nc3cccc(Br)c3)C2=C1
7,1.2 nM,OCCN(CCO)CCCNN1=CC=C2N=CN=C(Nc3cccc(Br)c3)C2=C1
8,0.97 nM,COc1cc2ncnc(Nc3ccc(Br)cc3)c2cc1OC
9,0.9 nM,Brc1cccc(NC2=NC=NC3=CC=N(NCCc4c[nH]cn4)C=C23)c1
10,0.9 nM,OCC(O)CNN1=CC=C2N=CN=C(Nc3cccc(Br)c3)C2=C1
11,0.89 nM,COc1cc2ncnc(Nc3cccc(I)c3)c2cc1OC
12,0.8 nM,Brc1cccc(Nc2ncnc3cnc(NCCN4CCOCC4)nc23)c1
13,0.7 nM,CNc1ncc2ncnc(Nc3cccc(Br)c3)c2n1
14,0.69 nM,CNc1cc2ncnc(Nc3cccc(Br)c3)c2cc1N
15,0.6 nM,OC(=O)CCNN1=CC=C2N=CN=C(Nc3cccc(Br)c3)C2=C1
16,0.5 nM,Brc1cccc(NC2=NC=NC3=CC=N(NCCCn4ccnc4)C=C23)c1
17,0.24 nM,COc1cc2ncnc(Nc3cccc(C(F)(F)F)c3)c2cc1OC
18,0.2 nM,OCCNN1=CC=C2N=CN=C(Nc3cccc(Br)c3)C2=C1
19,0.2 nM,Brc1cccc(Nc2ncnc3cnc(NCCc4c[nH]cn4)nc23)c1
20,0.2 nM,OC(=O)CCCNN1=CC=C2N=CN=C(Nc3cccc(Br)c3)C2=C1
21,0.17 nM,CCCOc1cc2ncnc(Nc3cccc(Br)c3)c2cc1OCCC
22,0.17 nM,Oc1cc2ncnc(Nc3cccc(Br)c3)c2cc1O
23,0.12 nM,Nc1cc2ncnc(Nc3cccc(Br)c3)c2cc1N
24,0.006 nM,CCOc1cc2ncnc(Nc3cccc(Br)c3)c2cc1OCC
